# Experimental data published in patent publication US20240174638A1, “HETEROARYL DERIVATIVES AS APELIN RECEPTOR AGONISTS” (RESEARCH TRIANGLE INSTITUTE, priority 2021, published 2024).
# Where two headings read alike, the source gives them in different places.
# How the values were obtained:
# [1] = system: BLEO-induced lung fibrosis in male C57BL/6 mice; test: Chronic (21-day) bleomycin-induced lung fibrosis model, prophylactic (Px) and therapeutic (Tx) arms; assay type: in vivo, mouse; settings: for 21-day survival rate: BLEO-instilled mice
# [2] = Plasma and tissue pharmacokinetics following a single oral administration in male SD rat; assay type: in vivo
# Procedure: Assay: Plasma and Tissue Pharmacokinetics of Example 22 Following a Single Oral Administration in Male SD Rat
# Preparation of PO (10 mg/kg, 10 mL/kg) Dosing
# 1 mg/mL solution of 0.5% (w/v) CMC-Na, 0.1% (v/v) Tween 80 in Milli-Q Water.
# Dissolved 29.68 mg of EXAMPLE 22 in 29.637 mL of 0.5% (w/v) CMC-Na, 0.1% (v/v). Tween 80 in Milli-Q Water with vortexing and sonicate to obtain a solution.
# (§1) The desired serial concentrations of working solutions were achieved by diluting stock solution of analyte with 50% acetonitrile in water solution. 5 μL of working solutions (10, 20, 50, 100, 500, 1000, 5000, 10000 ng/mL) were added to 50 μL of the blank SD Rat plasma to achieve calibration standards of 1˜1000 ng/mL (1, 2, 5, 10, 50, 100, 500, 1000 ng/mL) in a total volume of 55 μL. Four quality control samples at 2 ng/mL, 5 ng/mL, 50 ng/mL and 800 ng/mL for plasma were prepared independently of those used for the calibration curves. These QC samples were prepared on the day of analysis in the same way as calibration standards.
# 55 μL standards, 55 μL QC samples and 55 μL unknown samples (50 μL plasma with 5 μL blank solution) were added to 200 μL of acetonitrile containing IS mixture for precipitating protein respectively. Then the samples were vortexed for 30 s. After centrifugation at 4 degree Celsius, 3900 rpm for 15 min, the supernatant was diluted 3 times with water. 20 μL of diluted supernatant was injected into the LC/MS/MS system for quantitative analysis.
# as §1, with “Rat tissue (lung, brain, kidney, muscle/skeletal, spleen, heart and skin) homogenous” for “Rat plasma”, “for tissue” for “for plasma”
# 50 μL standards, 50 μL QC samples and 50 μL unknown samples (50 μL Tissue with 5 μL blank solution) were added to 200 μL of acetonitrile containing IS mixture for precipitating protein respectively. Then the samples were vortexed for 30 s. After centrifugation at 4 degree Celsius, 3900 rpm for 15 min, the supernatant was diluted 3 times with water. 50 μL of heart diluted supernatant and 20 μL of other tissue diluted supernatant was injected into the LC/MS/MS system for quantitative analysis.
# Human plasma protein = settings: 6 h, 1 μM
# Mouse plasma protein = settings: 6 h, 1 μM
# Rat plasma protein = settings: 6 h, 1 μM
# [3] = system: Salmonella typhimurium (TA98, TA100, TA1535 and TA1537)
# in vitro [4] = settings: human
# in vitro [5] = settings: mouse, pH 7.4
# in vitro [6] = settings: rat, pH 7.4
# [7] = relative to Vehicle-treated BLEO-instilled controls
smiles,measurement,setting,value
"O=C(O)C[C@H](CCN1CCCC(F)(F)C1)NC(=O)c1cc(-c2ccccc2C(F)(F)F)n(-c2nccs2)n1 [Example 22, (3S)-5-(3,3-difluoropiperidin-1-yl)-3-{[1-(1,3-thiazol-2-yl)-5-[2-(trifluoromethyl)phenyl]-1H-pyrazol-3-yl]formamido}pentanoic acid]",composite Tissue Collagen Fraction (TCF),"[1]; 15 mpk/day Px EXAMPLE 22, Vehicle 5.58±0.34%",4.51±0.31%
same,21-day survival rate,[1]; 15 mpk Px EXAMPLE 22 (p.o. BID),91%
same,21-day survival rate,[1]; 30 mpk Px EXAMPLE 22 (p.o. BID),91%
same,21-day survival rate,[1]; 60 mpk Px EXAMPLE 22 (p.o. BID),92%
same,21-day survival rate,"[1]; Tx EXAMPLE 22 60 mpk (p.o. BID, from 5 days post-BLEO)",100%
same,ΔBW,"[1]; D0-D21, relative to Vehicle-treated BLEO-instilled controls",Neither EXAMPLE 22 nor PIRF affected
same,"end-point readouts for fibrosis, overall",[1]; overall conclusion of the study,positive impact on one or more end-point readouts
same,LW indexed to tibia length (LW:TL),[1]; [7],Neither EXAMPLE 22 nor PIRF affected
same,endpoint lung OH-P content,[1]; [7],Neither EXAMPLE 22 nor PIRF affected
same,endpoint lung weight (LW),[1]; [7],Neither EXAMPLE 22 nor PIRF affected
same,final BW,[1]; [7],Neither EXAMPLE 22 nor PIRF affected
same,serial BW,[1]; [7],Neither EXAMPLE 22 nor PIRF affected
same,"4 h Conc., Brain (mean)",[2]; 4 h post dose,BLQ
same,"24 h Conc., Brain (mean)",[2]; 24 h post dose,BLQ
same,"24 h Conc., Heart (mean)",[2]; 24 h post dose,BLQ
same,"24 h Conc., Muscle (mean)",[2]; 24 h post dose,BLQ
same,"24 h Conc., Skin (mean)",[2]; 24 h post dose,BLQ
same,"24 h Conc., Spleen (mean)",[2]; 24 h post dose,BLQ
same,concentration at 4 h,"[2]; heart, 10 mg/kg, 4 h post dose, read-out: 4 h Conc., Heart (mean)",28.8 ng/g
same,Kp at 4 h,"[2]; heart, 10 mg/kg, 4 h post dose, read-out: 4 h Tissue:Plasma Ratio, Heart",0.28
same,Kp at 24 h,"[2]; kidney (to plasma), 10 mg/kg, 24 h post dose, read-out: 24 h Tissue:Plasma Ratio, Kidney",3.47
same,concentration at 4 h,"[2]; kidney, 10 mg/kg, 4 h post dose, read-out: 4 h Conc., Kidney (mean)",305 ng/g
same,Kp at 4 h,"[2]; kidney, 10 mg/kg, 4 h post dose, read-out: 4 h Tissue:Plasma Ratio, Kidney",3.11
same,concentration at 24 h,"[2]; kidney, 10 mg/kg, 24 h post dose, read-out: 24 h Conc., Kidney (mean)",22.9 ng/g
same,concentration at 4 h,"[2]; lung, 10 mg/kg, 4 h post dose, read-out: 4 h Conc., Lung (mean)",40 ng/g
same,Kp at 4 h,"[2]; lung, 10 mg/kg, 4 h post dose, read-out: 4 h Tissue:Plasma Ratio, Lung",0.39
same,concentration at 4 h,"[2]; muscle (skeletal), 10 mg/kg, 4 h post dose, read-out: 4 h Conc., Muscle (mean)",7.3 ng/g
same,Kp at 4 h,"[2]; muscle (skeletal), 10 mg/kg, 4 h post dose, read-out: 4 h Tissue:Plasma Ratio, Muscle",0.07
same,concentration at 4 h,"[2]; plasma, 10 mg/kg, 4 h post dose, read-out: 4 h Conc., Plasma (mean)",0.102 µg/mL
same,concentration at 24 h,"[2]; plasma, 10 mg/kg, 24 h post dose, read-out: 24 h Conc., Plasma (mean)",0.0066 µg/mL
same,concentration at 4 h,"[2]; skin, 10 mg/kg, 4 h post dose, read-out: 4 h Conc., Skin (mean)",19.3 ng/g
same,Kp at 4 h,"[2]; skin, 10 mg/kg, 4 h post dose, read-out: 4 h Tissue:Plasma Ratio, Skin",0.19
same,concentration at 4 h,"[2]; spleen, 10 mg/kg, 4 h post dose, read-out: 4 h Conc., Spleen (mean)",14 ng/g
same,Kp at 4 h,"[2]; spleen, 10 mg/kg, 4 h post dose, read-out: 4 h Tissue:Plasma Ratio, Spleen",0.14
same,% Protein Bound Rep 1,Human plasma protein,36.79%
same,% Protein Bound Rep 2,Human plasma protein,90.21%
same,% Protein Bound Rep 3,Human plasma protein,87.89%
same,Buffer Concentration Rep 1,Human plasma protein,80.7 nM
same,Buffer Concentration Rep 2,Human plasma protein,70.2 nM
same,Buffer Concentration Rep 3,Human plasma protein,81.2 nM
same,Mean % Protein Bound,Human plasma protein,88.29%
same,Plasma Concentration Rep 1,Human plasma protein,0.611 µM
same,Plasma Concentration Rep 2,Human plasma protein,0.7171 µM
same,Plasma Concentration Rep 3,Human plasma protein,0.6706 µM
same,% Protein Bound Rep 1,Mouse plasma protein,92.07%
same,% Protein Bound Rep 2,Mouse plasma protein,90.96%
same,% Protein Bound Rep 3,Mouse plasma protein,91.91%
same,Buffer Concentration Rep 1,Mouse plasma protein,67.1 nM
same,Buffer Concentration Rep 2,Mouse plasma protein,79.3 nM
same,Buffer Concentration Rep 3,Mouse plasma protein,67.6 nM
same,Mean % Protein Bound,Mouse plasma protein,91.60%
same,Plasma Concentration Rep 1,Mouse plasma protein,0.8463 µM
same,Plasma Concentration Rep 2,Mouse plasma protein,0.877 µM
same,Plasma Concentration Rep 3,Mouse plasma protein,0.8358 µM
same,% Protein Bound Rep 1,Rat plasma protein,91.63%
same,% Protein Bound Rep 2,Rat plasma protein,90.98%
same,% Protein Bound Rep 3,Rat plasma protein,92.73%
same,Buffer Concentration Rep 1,Rat plasma protein,49.3 nM
same,Buffer Concentration Rep 2,Rat plasma protein,62.3 nM
same,Buffer Concentration Rep 3,Rat plasma protein,53.6 nM
same,Mean % Protein Bound,Rat plasma protein,91.78%
same,Plasma Concentration Rep 1,Rat plasma protein,0.5886 µM
same,Plasma Concentration Rep 2,Rat plasma protein,0.6906 µM
same,Plasma Concentration Rep 3,Rat plasma protein,0.7374 µM
same,Cytotoxicity Code,[3],N
same,cytotoxicity to tester strains,[3],No cytotoxicity was observed
same,dose related increase of revertant colonies,[3],No dose related increase
same,precipitate in Mini-Ames assay,[3],No precipitate was observed
same,"recovery at 6 h, 1 μM",in vitro [4],74.4%
same,"recovery at 6 h, 1 μM",in vitro [5],92.4%
same,"recovery at 6 h, 1 μM",in vitro [6],72.7%
